Data taken from patent publication US20250066286A1, “COMPOSITIONS OF (Z)-ENDOXIFEN AND METHODS OF ENRICHMENT THEREOF” (Atossa Therapeutics, Inc., priority 2022, published 2025).

Key:
Assay type in all cases: physicochemical
[1] = Competitive slurries of (Z)-endoxifen polymorphs (XRPD); settings: slurries of Forms I, IV and VII in various solvents, 3 days at room temperature or 24 hours at high temperature
Method: This example covers conversions of (Z)-endoxifen polymorphs in solvent slurries. Slurries of Forms I and VII were generated with Forms I, IV, and VII in various solvents, and incubated for either 3 days at room temperature or for 24 hours at high temperature. Following these incubations, polymorphs were collected from the slurries and characterized by XRPD.

[2] = Scale-up crystallizations of (Z)-endoxifen Form I, Form IV, Form VII (XRPD); settings: ethyl acetate 0.8 mL sat, heptane 4 mL, RT to −20 °C, 1 d
Method: The acetonitrile slurry method for generating Form I (EXAMPLE 5) was performed on a 800 mg-scale. For this crystallization, 800 mg (Z)-endoxifen was partially dissolved in 8 ml acetonitrile at a concentration of 100 mg/ml and left under magnetic stirring at 50° C. for 2 days. Solid (Z)-endoxifen was collected from the slurry and analyzed by XRPD, confirming that the resultant solid was Form I. The remaining slurry was then filtered with a 0.45p m paper filter under vacuum and analyzed by XRPD, which indicated a yield of 94% for the resultant Form I
The EXAMPLE 6 procedure for generating Form IV by precipitation from 2-propanol/ethyl acetate (50/50 v/v) systems was scaled to both 500 mg and 1 g. For these crystallizations, (Z)-endoxifen was added to 2-propanol/ethyl acetate 50/50 (v/v) mixtures to achieve concentrations of 100 mg/ml. The solvent mixtures were then heated to 65° C. Once complete dissolution of (Z)-endoxifen occurred, the solvent mixtures were cooled to 25° C. at a rate of 0.2° C./minute. The solutions were maintained at 25° C. with stirring for 18 hours, and then vacuum filtered with a 0.45 μm paper filter.
The ethyl acetate:heptane crystallizations outlined in EXAMPLE 10 were repeated at larger scales. […]

[3] = Slurries of (Z)-endoxifen in solvent mixtures (XRPD); settings: for Output Crystallinity [high/low/SC/oriented]: 50° C., 1 d
Method: Slurry experiments were performed with solvents with 50° C. (Z)-endoxifen was suspended in 500 μl of the solvent mixture to achieve the concentrations of 40 mg/ml or 100 mg/ml. The resultant solutions were stored at 50° C. for one day. For solvent mixtures which included acetone, the slurry was instead stored at 40° C. The suspensions were then recovered and filtered with a nylon filter (0.22 μm) during centrifugation at 4000 rpm for 3 minutes, and the collected solid (Z)-endoxifen was analyzed by XRPD as shown in FIG. 85-FIG. 91 and FIG. 1-FIG. 5.

[4] = Precipitation of (Z)-endoxifen by antisolvent addition, PAD and PAI (XRPD)
Method: Further (Z)-endoxifen crystallizations were performed utilizing antisolvents to affect precipitation. (Z)-endoxifen was dissolved in various solvents to obtain suspensions at room temperature that were then stirred overnight and filtered with a nylon filter (0.22 μm) to obtain a clear stock solution. Two different types of precipitation experiments were performed with the resulting clear stock solutions. For precipitation by antisolvent addition to a saturated solution (PAD) experiments, antisolvent was added dropwise to the clear stock solution during stirring at room temperature at a ratio of 1:5 or 1:10 stock solution:antisolvent. For precipitation by saturated solution addition to an antisolvent (PAI) experiments, the clear stock solution was added drop wise to antisolvent under magnetic stirring at room temperature at a ratio of 1:5 or 1:10 stock solution:antisolvent. All obtained precipitates from PAD and PAI experiments were filtered under vacuum and analyzed by XRPD. […] After storage if there was no precipitate, the solutions were evaporated at room temperature. All obtained precipitates were filtered under vacuum and analyzed by XRPD. PAD and PAI experiments were also performed on the clear solutions with a concentration of 20 mg/ml (Z)-endoxifen recovered from the solubility experiments, described in EXAMPLE 19. The clear solutions recovered were (Z)-endoxifen solutions in ethyl acetate, butyl acetate, 4-met-2-pentanone, and toluene. The procedure for the PAI and PAD was the same as described above.

[5] = PAD--GRAD-EVRT, butyl acetate 0.15 mL, butyl methyl ether 1.5 mL, RT
[6] = PAD--GRAD-EVRT, tetrahydrofuran 0.03 mL sat, acetone 0.3 mL, RT
[7] = PAD-GRAD-EVRT, ethyl acetate 0.15 mL, butyl methyl ether 1.5 mL, RT
[8] = PAD-GRAD-EVRT, toluene 0.15 mL, butyl methyl ether 1.5 mL, RT
[9] = PAD, butyl acetate 0.15 mL, 20 mg/mL, antisolvent heptane 0.75 mL, RT
[10] = PAD, butyl acetate 0.15 mL, 20 mg/mL, antisolvent heptane 1.5 mL, RT
[11] = PAD, ethyl acetate 0.15 mL, 20 mg/mL, antisolvent heptane 0.75 mL, RT
[12] = PAD, ethyl acetate 0.15 mL, 20 mg/mL, antisolvent heptane 1.5 mL, RT
[13] = PAD, tetrahydrofuran 0.03 mL sat, heptane 0.15 mL, RT
[14] = PAD, tetrahydrofuran 0.03 mL sat, water 0.15 mL, RT
[15] = PAD, tetrahydrofuran 0.03 mL sat, water 0.3 mL, RT
[16] = PAD, toluene 0.15 mL, 20 mg/mL, antisolvent heptane 1.5 mL, RT
[17] = PAI-GRAD-EVRT, tetrahydrofuran 0.03 mL sat, acetone 0.3 mL, RT
[18] = PAI, tetrahydrofuran 0.03 mL sat, heptane 0.15 mL, RT
[19] = PAI, tetrahydrofuran 0.03 mL sat, water 0.3 mL, RT

XRPD Results Phase in traces ([2]; PAD-GRAD): Form XVI | XRPD Results Phase in traces ([2]; PAI-GRAD): Form IX | Output Crystallinity [high/low/SC/oriented] ([3]; SLHT-1D-H2O/THF(40 mg/ml), FIG. 3: water/tetrahydrofuran 95/5, 40 mg/mL): low | Output Crystallinity [high/low/SC/oriented] ([3]; SLHT-1D-HEP/TOL(100 mg/ml), FIG. 89: heptane/toluene 50/50, 100 mg/mL): low | Polymorphic form recovered (XRPD) ([3]; all solvent mixture slurries, 40 or 100 mg/ml, 50° C. (40° C. with acetone), one day): Form I with varying degrees of purity | Output Crystallinity [high/low/SC/oriented] [4, 5]: low | Output Main phase [phase] [4, 5]: Form I | Output Main phase [phase] [4, 6]: Form XII | Output Traces [phase] [4, 6]: Form I | Output Main phase [phase] ([4]; PAD-GRAD-EVRT, dimethylformamide 0.15 mL sat, butyl methyl ether 1.5 mL, RT): Form I | Output Crystallinity [high/low/SC/oriented] [4, 7]: low | Output Main phase [phase] [4, 7]: Form I | Output Crystallinity [high/low/SC/oriented] [4, 8]: low | Output Main phase [phase] [4, 8]: Form VIII | Output Main phase [phase] ([4]; PAD-GRAD, butyl acetate 0.15 mL, butyl methyl ether 1.5 mL, 25 to −20 °C, ramp not controlled, 1 d): no solid | Output Main phase [phase] ([4]; PAD-GRAD, dimethylformamide 0.15 mL sat, butyl methyl ether 1.5 mL, RT to −20 °C, 1 d): no solid | Output Main phase [phase] ([4]; PAD-GRAD, ethyl acetate 0.15 mL, butyl methyl ether 1.5 mL, 25 to −20 °C, ramp not controlled, 1 d): no solid | Output Main phase [phase] ([4]; PAD-GRAD, methyl isobutyl ketone 0.15 mL, butyl methyl ether 1.5 mL, 25 to −20 °C, ramp not controlled, 1 d): no solid | Output Main phase [phase] ([4]; PAD-GRAD, tetrahydrofuran 0.03 mL sat, acetone 0.3 mL, RT to −20 °C, 1 d): no solid | Output Main phase [phase] ([4]; PAD-GRAD, toluene 0.15 mL, butyl methyl ether 1.5 mL, 25 to −20 °C, ramp not controlled, 1 d): no solid | Output Main phase [phase] ([4]; PAD, butyl acetate 0.15 mL, 20 mg/mL, antisolvent butyl methyl ether 0.75 mL, RT): no solid | Output Main phase [phase] ([4]; PAD, butyl acetate 0.15 mL, 20 mg/mL, antisolvent butyl methyl ether 1.5 mL, RT): no solid | Output Crystallinity [high/low/SC/oriented] [4, 9]: low | Output Main phase [phase] [4, 9]: no solid | Output Crystallinity [high/low/SC/oriented] [4, 10]: low | Output Main phase [phase] [4, 10]: Form IX | Output Main phase [phase] ([4]; PAD, dimethylformamide 0.15 mL sat, butyl methyl ether 0.75 mL, RT): no solid | Output Main phase [phase] ([4]; PAD, dimethylformamide 0.15 mL sat, butyl methyl ether 1.5 mL, RT): no solid | Output Main phase [phase] ([4]; PAD, dimethylformamide 0.15 mL sat, water 0.75 mL, RT): amorphous | Output Main phase [phase] ([4]; PAD, ethyl acetate 0.15 mL, 20 mg/mL, antisolvent butyl methyl ether 0.75 mL, RT): no solid | Output Main phase [phase] ([4]; PAD, ethyl acetate 0.15 mL, 20 mg/mL, antisolvent butyl methyl ether 1.5 mL, RT): no solid | Output Crystallinity [high/low/SC/oriented] [4, 11]: low | Output Main phase [phase] [4, 11]: no solid | Output Crystallinity [high/low/SC/oriented] [4, 12]: low | Output Main phase [phase] [4, 12]: Form IX | Output Main phase [phase] ([4]; PAD, methyl isobutyl ketone 0.15 mL, 20 mg/mL, antisolvent butyl methyl ether 0.75 mL, RT): no solid | Output Main phase [phase] ([4]; PAD, methyl isobutyl ketone 0.15 mL, 20 mg/mL, antisolvent butyl methyl ether 1.5 mL, RT): no solid | Output Main phase [phase] ([4]; PAD, methyl isobutyl ketone 0.15 mL, 20 mg/mL, antisolvent heptane 0.75 mL, RT): no solid | Output Main phase [phase] ([4]; PAD, methyl isobutyl ketone 0.15 mL, 20 mg/mL, antisolvent heptane 1.5 mL, RT): no solid | Output Main phase [phase] ([4]; PAD, tetrahydrofuran 0.03 mL sat, acetone 0.15 mL, RT): no solid | Output Main phase [phase] ([4]; PAD, tetrahydrofuran 0.03 mL sat, acetone 0.3 mL, RT): no solid | Output Crystallinity [high/low/SC/oriented] [4, 13]: low | Output Main phase [phase] [4, 13]: Form XIX | Output Crystallinity [high/low/SC/oriented] [4, 14]: low | Output Main phase [phase] [4, 14]: no solid | Output Crystallinity [high/low/SC/oriented] [4, 15]: low | Output Main phase [phase] [4, 15]: Form IV | Output Main phase [phase] ([4]; PAD, toluene 0.15 mL, 20 mg/mL, antisolvent butyl methyl ether 0.75 mL, RT): no solid | Output Main phase [phase] ([4]; PAD, toluene 0.15 mL, 20 mg/mL, antisolvent butyl methyl ether 1.5 mL, RT): no solid | Output Main phase [phase] ([4]; PAD, toluene 0.15 mL, 20 mg/mL, antisolvent heptane 0.75 mL, RT): no solid | Output Crystallinity [high/low/SC/oriented] [4, 16]: low | Output Main phase [phase] [4, 16]: Amorphous | Output Main phase [phase] ([4]; PAI-GRAD-EVRT, dimethylformamide 0.15 mL sat, butyl methyl ether 1.5 mL, RT): Form I | Output Main phase [phase] [4, 17]: Form XII | Output Traces [phase] [4, 17]: Form XIII | Output Main phase [phase] ([4]; PAI-GRAD, dimethylformamide 0.15 mL sat, butyl methyl ether 1.5 mL, RT to −20 °C, 1 d): no solid | Output Main phase [phase] ([4]; PAI-GRAD, tetrahydrofuran 0.03 mL sat, acetone 0.3 mL, RT to −20 °C, 3 d): no solid | Output Main phase [phase] ([4]; PAI, dimethylformamide 0.15 mL sat, butyl methyl ether 1.5 mL, RT): no solid | Output Main phase [phase] ([4]; PAI, dimethylformamide 0.15 mL sat, water 0.75 mL, RT): Form I | Output Main phase [phase] ([4]; PAI, tetrahydrofuran 0.03 mL sat, acetone 0.3 mL, RT): no solid | Output Crystallinity [high/low/SC/oriented] [4, 18]: low | Output Main phase [phase] [4, 18]: Form XIX | Output Crystallinity [high/low/SC/oriented] [4, 19]: low | Output Main phase [phase] [4, 19]: Form IV
SMILES: CC/C(=C(\c1ccc(O)cc1)c1ccc(OCCNC)cc1)c1ccccc1 [(Z)-endoxifen, (Z)-4-(1-(4-(2-(methylamino)ethoxy)phenyl)-2-phenylbut-1-enyl)phenol]
Polymorphic form recovered (XRPD) [1]: majority of slurries yielded high purity Form I, some of the slurries yielded Form I with traces of Form IV or Form VII, and six slurries yielded primarily Form IV
